Laboratory results from ChEMBL document CHEMBL1157847, “Dichloro-4-quinolinol-3-carboxylic acid: synthesis and antioxidant abilities to scavenge radicals and to protect methyl linoleate and DNA” (Eur J Med Chem, 2010).

Legend:
Assay type in all cases: functional
[1] = Antioxidant activity assessed as residual galvinoxyl radical scavenging activity at 1.5 mM after 30 mins relative to control
[2] = Antioxidant activity against Cu(2+)/GSH-induced DNA damage assessed as TBARS production at 200 uM after 4 hrs relative to control
[3] = Antioxidant activity assessed as residual ABTS cationic radical scavenging activity at 1.5 mM after 30 mins relative to control
[4] = Antioxidant activity against beta-carotene bleaching assessed as decrease of absorbance at 0.3 mM after 100 mins relative to control; parameters: scale not given: the % may be the effect or the level left
[5] = system: Radical scavenging activity; assay: Antioxidant activity assessed as residual DPPH radical scavenging activity at 1.5 mM after 30 mins relative to control
[6] = Antioxidant activity against AAPH-induced linoleic acid oxidation assessed as exhausted methyl linoleate at 2 mM after 4 hrs relative to control
[7] = Antioxidant activity against hydroxyl radical-induced DNA damage assessed as TBARS production at 400 uM after 30 mins relative to control
[8] = Antioxidant activity against AAPH-induced DNA damage assessed as TBARS production at 200 uM after 4 hrs relative to control

SMILES | Activity [1] [%] | Activity [2] [%] | Activity [3] [%] | Activity [4] [%] | Activity [5] [%] | Activity [6] [%] | Activity [7] [%] | Activity [8] [%]
O=C(O)c1cnc2ccccc2c1O | 102 | 96.6 | 101 | 77.3 | 94.6 | 113 | 90.4 | 103
O=C(O)c1cnc2c(Cl)ccc(Cl)c2c1O | 104 | 103 | 99.9 | 77.3 | 94.1 | 62.7 | 84.6 | 95.4
O=C(O)c1cnc2cc(Cl)ccc2c1O | 104 | 88.9 | 102 | 91.1 | 94.7 | 107 | 102 | 95
O=C(O)c1cnc2c(Cl)cc(Cl)cc2c1O | 104 | 95.4 | 104 | 129 | 93.8 | 7.3 | 83.3 | 99.4
O=C(O)c1cnc2c(Cl)c(Cl)ccc2c1O | 102 | 111 | 97.5 | 108 | 93.4 | 41.9 | 88.7 | 97.9
O=C(O)c1cnc2cc(Cl)cc(Cl)c2c1O | 93.5 | 98.3 | 90 | 77.3 | 91.2 | 111 | 92.7 | 98.6
